Article PMC12213745, “Compounds from Cyclocarya paliurus leaves inhibit binary division of methicillin-resistant Staphylococcus aureus by disrupting FtsZ dynamic” (Frontiers in Microbiology, 2025)
Values after ≈ are worked out from the molar mass of the structure shown. Where two headings read alike, the source gives them in different places.

Assays:
[1] = test system: S. enterica subsp. Enterica (1.1114); test: MIC, broth microdilution (CLSI); assay type: cell-based, Salmonella enterica subsp. enterica; conditions: Salmonella enterica; S. enterica subsp. Enterica (1.1114); ≥ 90% growth inhibition, 18–24 h; read-out: MIC
Excerpt: (§1) Staphylococcus aureus ATCC25923 and Escherichia coli ATCC25922 were obtained from the American Type Culture Collection (ATCC, Manassas, VA, USA). The Methicillin-resistant S. aureus (MRSA) clinical isolate MRSA-4, previously confirmed as mecA-positive and characterized for its antibiotic resistance profile ([Sun et al., 2023]), was used in this study. Staphylococcus epidermidis (GDMCC 1.143), Enterococcus faecalis (GDMCC 1.164), and Salmonella enterica subsp. enterica (GDMCC 1.1114) were obtained from the Guangdong Microbial Culture Collection Center (GDMCC, Guangzhou, China). The Pseudomonas aeruginosa PA14 strain was kindly provided by Professor Min Wu (Southwest Medical University, China). All bacterial strains were routinely cultured in Mueller-Hinton broth (MHB) or Luria-Bertani (LB) broth medium at 37°C with shaking at 200 rpm. Vancomycin was purchased from Solarbio Science & Technology Co., Ltd. (Beijing, China), and oxacillin was obtained from Taiji Group Hengsheng Pharmaceutical Co., Ltd. (Chengdu, China). The polyclonal rabbit primary anti-body to FtsZ was purchased from Abcam PLC (Cambridge, UK). Alexa488-conjugated goat anti-rabbit IgG was purchased from ZSGB-BIO Biotechnology (Beijing, China). DAPI staining solution was purchased from Beyotime Biotechnology (Shanghai, China).
(§2) The minimum inhibitory concentrations (MICs) of the test compounds (AA, MA, and UA) were determined using the standard broth microdilution method in accordance with the Clinical and Laboratory Standards Institute (CLSI) guidelines ([Humphries et al., 2021]). Bacteria were cultured in MHB or LB broth at 37°C with shaking (200 rpm) to the logarithmic phase, then diluted to a final density of 1 × 10^6 CFU/mL. Test compounds (dissolved in DMSO) and positive controls (vancomycin and oxacillin) were diluted in MHB and serially twofold diluted in 96-well plates. Each well was inoculated with 100 μL of bacterial suspension (1 × 10^6 CFU/mL), yielding a final bacterial density of 5 × 10^5 CFU/mL and a total volume of 200 μL. The final concentrations tested were 128 to 1 μg/mL for AA, MA, and UA; 16 to 0.5 μg/mL for vancomycin; and 64 to 0.0625 μg/mL for oxacillin. DMSO was used as a solvent control. Plates were incubated statically at 37°C for 18–24 h. After incubation, the OD600 was measured using a microplate reader (SpectraMax i3x, Molecular Devices, CA, USA). The MIC was defined as the lowest compound concentration that caused ≥ 90% inhibition of bacterial growth compared to the drug-free growth control. All tests were performed in three independent biological replicates.
(§3) Following the isolation and identification of AA, MA, and UA from ECPL, we evaluated their antibacterial activity and spectrum. The MICs of the compounds were determined against MRSA-4, S. aureus ATCC25923, S. epidermidis, and E. faecalis (Gram-positive), as well as P. aeruginosa PA14, E. coli ATCC25922, and S. enterica subsp. Enterica (Gram-negative) using the standard broth microdilution method in accordance with CLSI guidelines ([Humphries et al., 2021]).

P. aeruginosa PA14 = test: MIC, broth microdilution (CLSI); assay type: cell-based; conditions: Pseudomonas aeruginosa
Excerpt: as §1, §2, §3

E. coli ATCC25922 = test: MIC, broth microdilution (CLSI); assay type: cell-based; conditions: Escherichia coli
Excerpt: as §1, §2, §3

S. aureus ATCC25923 = test: MIC, broth microdilution (CLSI); assay type: cell-based; conditions: Staphylococcus aureus
Excerpt: as §1, §2, §3

E. faecalis = test: MIC, broth microdilution (CLSI); assay type: cell-based; conditions: Enterococcus faecalis
Excerpt: as §1, §2, §3

S. epidermidis (1.143) = test: MIC, broth microdilution (CLSI); assay type: cell-based; conditions: Staphylococcus epidermidis
Excerpt: as §1, §2, §3

MRSA-4 = test: Time-dependent killing assay; assay type: cell-based, Methicillin-resistant S. aureus; conditions: for time-kill outcome at 1 × and 2 × MIC: 1 × or 2 × MIC, initial reduction within 2 h, regrowth by 24 h; for nature of antibacterial effect (time-kill assays): MRSA-4
Experimental: An overnight culture of MRSA-4 was diluted 1:100 in fresh MHB and incubated at 37°C with shaking (200 rpm) until reaching mid-log phase (OD600 = 0.4–0.6). The culture was then adjusted to 1 × 10^6 CFU/mL and treated with AA, MA, or UA at concentrations of 1×, 2×, and 4 × MIC. 2 × MIC of vancomycin was used as a positive control, and an equivalent volume of DMSO served as the negative control. The cultures were incubated at 37°C with shaking (200 rpm) during the assay. At designated time points (0, 1, 2, 4, 8, and 24 h), samples were collected, serially diluted tenfold in sterile PBS, and 100 μL of appropriate dilutions were plated on LB agar. Plates were incubated at 37°C for 18–24 h, and viable bacteria were quantified. All experiments were performed in biological triplicates.
We next performed time-kill kinetics assays to characterize the time-dependent antibacterial effects of AA, MA, and UA against MRSA-4. Bacterial cultures were exposed to AA, MA, and UA at 1×, 2×, and 4 × their respective MICs, and viable CFU were counted at designated time points (0, 1, 2, 4, 8, and 24 h). As shown in the time-kill curves (Figure 1), treatment with 1 × or 2 × MIC of AA, MA, or UA led to an initial reduction in bacterial load within the first 2 h.

[2] = P. aeruginosa PA14, ≥ 90% growth inhibition, 18–24 h, read-out: MIC
[3] = E. coli ATCC25922, ≥ 90% growth inhibition, 18–24 h, read-out: MIC
[4] = S. aureus ATCC25923, ≥ 90% growth inhibition, 18–24 h, read-out: MIC
[5] = E. faecalis, ≥ 90% growth inhibition, 18–24 h, read-out: MIC
[6] = S. epidermidis (1.143), ≥ 90% growth inhibition, 18–24 h, read-out: MIC

Compound	MIC [1] [µg/mL]	MIC (P. aeruginosa PA14; [2]) [µg/mL]	MIC (E. coli ATCC25922; [3]) [µg/mL]	MIC (S. aureus ATCC25923; [4]) [µg/mL]	MIC (E. faecalis; [5]) [µg/mL]	MIC (S. epidermidis (1.143); [6]) [µg/mL]	time-kill outcome at 1 × and 2 × MIC (MRSA-4)	bacterial counts (below the detection limit) (MRSA-4; 4 × MIC) [log10 CFU/mL]	reduction of viable bacterial counts (MRSA-4; 4 × MIC, within 2 h) [log10 CFU/mL]	nature of antibacterial effect (time-kill assays) (MRSA-4)	MIC (P. aeruginosa PA14; PA14) [µg/mL]	MIC (E. coli ATCC25922; ATCC25922) [µg/mL]	MIC (S. aureus ATCC25923; ATCC25923) [µg/mL]	MIC (E. faecalis) [µg/mL]	MIC (S. epidermidis (1.143)) [µg/mL]	reduction of viable bacterial counts (MRSA-4; 4 × MIC, at/over 24 h) [log10 CFU/mL]
C[C@H]1[C@H](C)CC[C@]2(C(=O)O)CC[C@]3(C)C(=CC[C@@H]4[C@@]5(C)C[C@@H](O)[C@H](O)[C@@](C)(CO)[C@@H]5CC[C@]43C)[C@H]12 [AA, asiatic acid]	> 128	> 128	> 128	32 (≈ 65.5 µM)	16 (≈ 32.7 µM)	16 (≈ 32.7 µM)	primarily bacteriostatic activity	< 2	> 3	bactericides						
CC1(C)CC[C@]2(C(=O)O)CC[C@]3(C)C(=CC[C@@H]4[C@@]5(C)C[C@@H](O)[C@H](O)C(C)(C)[C@@H]5CC[C@]43C)[C@@H]2C1 [MA, maslinic acid]	> 128						primarily bacteriostatic activity			bactericides	> 128	> 128	32 (≈ 67.7 µM)	4 (≈ 8.46 µM)	8 (≈ 16.9 µM)	> 3
C[C@H]1[C@H](C)CC[C@]2(C(=O)O)CC[C@]3(C)C(=CC[C@@H]4[C@@]5(C)CC[C@H](O)C(C)(C)[C@@H]5CC[C@]43C)[C@H]12 [UA, ursolic acid]	> 128	> 128	> 128	16 (≈ 35 µM)	2 (≈ 4.38 µM)	8 (≈ 17.5 µM)	primarily bacteriostatic activity			bacteriostatic						≤ 3
